row,SMILES,melting point [°C]
1,CC(=O)Oc1cccc2c1C(=O)c1c(OC(C)=O)cc(C(=O)O)cc1C2=O,218
2,CCCCCCCCCCCCCCCCCl,17.9
3,O=C(O)c1cccc(I)c1C(=O)O,178 to 182
4,CC1=CC=CC2Cc3ccccc3C(=O)N12 (configuration not stated),98
5,Nc1nc(O)cc(C(F)(F)F)n1,290
6,COC(=O)c1c(C=O)ccc(OC)c1OC,83
7,CCOC(=O)CC(=O)c1cc(OC)c(OC)c(OC)c1,86 to 91
8,CCCCC(=O)OCC(=O)C1(O)Cc2c(O)c3c(c(O)c2C(OC2CC(NC(=O)C(F)(F)F)C(O)C(C)O2)C1)C(=O)c1c(OC)cccc1C3=O (configuration not stated),136
9,CCOC(=O)c1cn(C(C)=O)nc1N,110
10,CC(=O)Nc1cccc(C=CC(=O)c2ccccc2)c1,104
11,O=C(O)c1cncc(-c2ccccc2)c1,260
12,O=C(Cl)c1ccc(-c2ncccn2)cc1,172 to 175
13,COC(=O)CC(=O)c1ccc(C(F)(F)F)cc1,57 to 62
14,O=S(=O)(Cl)c1ccc(CBr)cc1,74
15,CCOC(=O)CCCCCCC(=O)OCC,5.9
16,BrC(c1ccccc1)C(Br)c1ccccc1 (configuration not stated),239
17,CCc1ccc(CCOc2ccc(CC3SC(=O)NC3=O)cc2)nc1 (configuration not stated),184
18,Cc1ccc(C(c2ccc(C)o2)c2cc(Br)ccc2O)o1,97
19,COc1cc(C2c3cc4c(c(O)c3CC3COC(=O)C32)OCO4)cc(OC)c1OC (configuration not stated),234
20,CC(C(=O)O)C(C)C(=O)O (configuration not stated),120
21,CC(=O)Oc1c(-c2ccccc2)[nH]c2cc3c(cc12)C(=O)C(c1ccccc1)=[N+]3[O-],246
22,O=C1OC(=O)C2Cc3ccccc3CC12 (configuration not stated),188

row,SMILES,melting point [°C]
1,CC(=O)CS(C)(=O)=O,54
2,NNC(=O)c1ccccc1,115
3,Cc1cc([N+](=O)[O-])c(Cl)c([N+](=O)[O-])c1,114 to 116
4,O=C(C=Cc1ccc(-c2ccc(Cl)cc2)o1)c1ccccc1,128 to 129
5,COc1ccc(C(=NCc2ccccc2)c2ccc(OC)cc2)cc1,90
6,O=C1OC(c2ccccc2)=NC1=Cc1cc([N+](=O)[O-])ccc1O,231 to 232
7,CC(=O)Oc1cccc(N=[N+]([O-])c2cccc(OC(C)=O)c2)c1,102
8,CS(=O)(=O)CCCN=C=S,47.5
9,Cc1c(C(=O)O)cnn1-c1ccc(F)cc1,165 to 166
10,OC12CC=CCC1(O)CC=CC2 (configuration not stated),83
11,O=C(Cl)c1cccc(F)c1,-30
12,Cc1c(CCl)cccc1[N+](=O)[O-],42 to 47
13,O=C(c1cccs1)c1noc(-c2ccc3ccccc3c2)c1S(=O)(=O)c1ccccc1,128
14,Cc1ccc([N+](=O)[O-])c(Cl)c1,24
15,Cc1ccc(/N=N/c2c(N)nn3c(C(F)(F)F)cc(C)nc23)c(C)c1,220
16,O=Cc1ccc(-c2ccncc2)cc1,101 to 104
17,Cc1ccc(Oc2ncccc2N)c2c1CCC2,150
18,COc1ccc(CCCCO)cc1,3.5
19,CNC(=O)Oc1cccc(C)c1,77.7
20,Nc1nn2c(C(F)(F)F)cc(-c3cccs3)nc2c1/N=N/c1cccc([N+](=O)[O-])c1,245
21,O=[N+]([O-])c1ccc(N=Nc2ccc(N(CCO)CCO)cc2Cl)cc1,190
22,Cc1cc(O)cc2c1C(=O)CC(C)(C)O2,189 to 191

row,SMILES,melting point [°C]
1,CCC1(C)C=C/C(=N\NS(=O)(=O)c2ccc(C)cc2)CC1 (configuration not stated),159 to 169
2,Cc1cc(C)c(CC(O)c2cc3ccccc3o2)c(C)c1 (configuration not stated),75 to 76
3,Oc1cc(C(F)(F)F)nc2cc(Cl)cc(Cl)c12,230
4,CCC(=O)c1ccc(F)c(C(F)(F)F)c1,32
5,Clc1nc(Cl)nc(Oc2cc(Oc3nc(Cl)nc(Cl)n3)cc(Oc3nc(Cl)nc(Cl)n3)c2)n1,240
6,C#CC1(O)CCC2C3CCC4CCCCC4(C)C3CCC21C (configuration not stated),155
7,N#CC1C(=S)NC2(C(=O)Nc3ccccc32)C2=C1CCC2 (configuration not stated),311
8,C=C1C(=O)C23C(OC)CC4C5(C)CCCC4(COC5OC(C)=O)C2C(OC(C)=O)CC1C3OC(C)=O (configuration not stated),214
9,CC12CCC(C(=CC(=O)O)C1=O)C2(C)C (configuration not stated),106
10,O=C(O)c1c(Cl)c(Cl)c(Cl)c(Cl)c1Cl,209
11,O=[N+]([O-])c1cc([N+](=O)[O-])c(C=C(Cl)c2ccccc2)cc1C=C(Cl)c1ccccc1,145
12,CC(=CNNc1nc(C)cc(C)n1)c1ccncc1,214 to 216
13,Nc1cccc(N2CCOCC2)c1,118 to 119
14,CN(C)c1ccc(C=O)c(Cl)c1,83 to 84
15,O=[N+]([O-])c1cc(Cl)ccc1S(=O)(=O)c1ccccc1,115 to 117
16,CCCN(CCC)c1c([N+](=O)[O-])cc(S(N)(=O)=O)cc1[N+](=O)[O-],141
17,COc1ccc(C(=O)/C=C/c2cccc(OC)c2OC)c(O)c1,99.5
18,ON=CC1=C(C#Cc2ccccc2)CCC1,105 to 106
19,O=S(=O)(Cl)c1ccc(-c2cnco2)s1,80 to 82
20,C=CC1CC2C=CC1C2 (configuration not stated),-80

# Continued, values first:
row,melting point [°C],SMILES
1,225,CC(=O)C1(O)C(O)CC2C3CCC4=CC(=O)CCC4(C)C3CCC21C (configuration not stated)
2,-78.1,CC(C)SC(C)C
3,104 to 106,O=S(=O)(Cl)Cc1ccc(C(F)(F)F)cc1
4,108,COC(=O)c1c(P(c2ccccc2)c2ccccc2)ccc2ccccc12
5,55.5 to 74,CCCCCCCCCCOc1ccc(/N=N/c2ccc(CCCC)cc2)cc1
6,183,CON(C)C(=O)C=P(c1ccccc1)(c1ccccc1)c1ccccc1
7,131,O=C(O)c1ccc(CBr)c([N+](=O)[O-])c1
8,45 to 48,CCCCCCCCCCCCOc1ccccc1OCCCCCCCCCCCC
9,-67,O=C=NCCCCCCN=C=O
10,161 to 165,CC(=O)c1cc(Cl)c(N)c(Cl)c1
11,132,N#C/C(=C\c1ccc(Cl)cc1Cl)c1nc(-c2cccc3ccccc23)cs1
12,254,COc1ccc(-c2cc(=O)c3c(O)cc(O)cc3o2)cc1O
13,19,Clc1cc(Br)ccn1
14,31 to 32,CC(c1ccc(OC(F)=C(F)F)cc1)(c1ccc(OC(F)=C(F)F)cc1)c1ccc(OC(F)=C(F)F)cc1
15,39 to 42,NCc1ccc(-c2nccs2)cc1
16,295,O=C1NC(=O)C(c2ccccc2)(c2ccccc2)N1
17,148,CCOC(=O)C(CCc1ccccc1)NC1CCc2ccccc2N(CC(=O)O)C1=O (configuration not stated)
18,58,CCCCn1c2ccccc2c2ccccc21
19,130 to 133,CSc1nn(-c2ccccc2)cc1C(N)=S
20,255,CN(CC(=O)O)C(=N)N

row,melting point [°C],SMILES
1,100,O=C(Cl)c1cnc2ccccc2n1
2,148,Ic1cc(I)c(I)c(I)c1
3,56,CC1CCC2(O)C(C)(C)C3CCC2(C)C1C3 (configuration not stated)
4,172 to 174,CC(=O)C1=C(C)C(C)(O)NC1=O (configuration not stated)
5,220 to 222,COc1ccc(/C=c2\sc3nc4ccccc4n3c2=O)cc1OC
6,-50,C1CSCS1
7,180 to 181,O=C(O)c1cccc(-n2cccc2)c1
8,232,Oc1ccc(C(O)(c2ccccc2)c2ccc(O)c3ccccc23)c2ccccc12
9,105 to 107,CC(=O)OC1CCC2(C)C(CC(=O)C3C2CC(OC(C)=O)C2(C)C(C(C)CCC(=O)O)CCC32)C1 (configuration not stated)
10,140 to 144,NC(=S)c1ccc2c(c1)OCCO2
11,148 to 149,O=C1OC(c2ccccc2)=NC1=Cc1ccccc1F
12,-34,CCOC(=O)c1ccccc1
13,188,S=C(Nc1ccccc1)N1CC(c2ccccc2)CC1c1ccccc1 (configuration not stated)
14,-100,CCCCC(C)CC (configuration not stated)
15,226,Cc1c(Nc2ncccc2C(=O)O)cccc1C(F)(F)F
16,82.4,Cc1cc(C(C)(C)C)cc(C)c1O
17,257 to 258,O=Cc1c(-c2ccc(Cl)cc2)[nH]c2ccccc12
18,100,CC(C)(Oc1ccc(Cl)cc1)C(=O)OCCOC(=O)c1cccnc1
19,158,Cc1[nH]c(=O)n(C(C)C)c(=O)c1Br
20,179 to 184,O=C(O)[C@@H]1CCCC[C@H]1C(=O)c1cccs1 (relative stereo)

row,melting point [°C],SMILES
1,108 to 111,CC12CCCCC1CCC1C2CCC2(C)C1CCC2(O)C#Cc1ccccc1 (configuration not stated)
2,200,CSc1ncc(Cl)c(C(=O)O)n1
3,-5,COC(OC)(OC)OC
4,49 to 51,O=C(Cl)c1ccccc1COc1ccccc1
5,280 to 282,O=C(Nc1ccc([N+](=O)[O-])cc1)C(C(F)(F)F)(C(F)(F)F)C(F)(F)F
6,217 to 221,CN(C=O)c1ccc(C(=O)O)cc1
7,163 to 165,CSc1nc(N)c(C(=O)c2ccc(Br)cc2)s1
8,137 to 138,CCOC(=O)c1cc(-c2ccco2)[nH]n1
9,245,COC(=O)CCc1cc2c(cc1NC(C)=O)NC(=O)CC2
10,125,CCCC(CCC)C(N)=O
11,89 to 90,O=C(CBr)c1cc2ccccc2o1
12,183,O=[N+]([O-])c1ccc(C=Cc2ccc([N+](=O)[O-])cc2)cc1
13,119 to 123,O=C(NC1C2C=CC(C2)C1C(=O)O)OCc1ccccc1 (configuration not stated)
14,105,Cc1nc2ccccc2nc1C
15,144,CCCCCOC(=O)C1=C(C)NC(=O)NC1c1ccc2c(c1)OCO2 (configuration not stated)
16,78,CCN(CC)c1cccc(O)c1
17,105,N#C/C(=C\c1ccccc1)c1nc2ccccc2s1
18,41 to 43,Cn1ccc2c(C#N)cccc21

# Reference: a melting point compilation (Tetko et al.)
